Measured values as given in patent US8633199B2, “Medicine consisting of concomitant use or combination of DPP-IV inhibitor and other diabetic medicine” (Sanwa Kagaku Kenkyusho Co., Ltd., priority 2008, dated 2014).

Legend:
Type in all cases: in vivo, rat
ZDF rats = test: Oral corn starch loading test, plasma active GLP-1, glucose and insulin; conditions: oral compound (I) 3 mg/kg, Metformin 300 mg/kg, 15 min before corn starch loading, AUC 0-180 min; for increase of the concentration of the active GLP-1 in the plasma (AUC of change): FIG. 5; for plasma glucose elevation (AUC): FIG. 6
Protocol: An operation to insert a polyurethane catheter was performed on the right jugular vein of a ZDF rat (13 weeks old, male, Charles River Laboratories Japan, Inc.), and experiments were performed in the following four groups. (1) Control group: purified water was administered at a ratio of 5 ml/kg (2) Compound (I) group: the compound (I) dissolved in purified water was administered at a dose of 3 mg/kg (5 ml/kg) […] Metformin dissolved in purified water was administered at a dose of 300 mg/kg (5 ml/kg) (4) Concomitant use group: the compound (I) and Metformin dissolved in purified water were administered at respective doses of 3 mg/kg (5 ml/kg) and 300 mg/kg (5 ml/kg) […] Blood was collected from the catheter immediately before administration and after administration of corn starch, and centrifuged at 4° C., 3000 rpm for 10 minutes to obtain plasma. The concentration of the active GLP-1 in the obtained blood plasma was measured by ELISA (GLUCAGON-LIKE PEPTIDE-1 (ACTIVE) ELISA KIT, LINCO Research, Inc., US), the plasma glucose and insulin concentrations of the obtained plasma was measured by Glucose C2 (Wako Pure Chemical Industries, Ltd., Japan) and ELISA (Rat Insulin ELISA Kit, Shibayagi, Co., Ltd., Japan), respectively. Based on the measured concentration of the active GLP-1 in the plasma, the amount of change relative to the concentration immediately before starch administration was obtained. Based on the amount of change relative to the plasma active GLP-1, glucose and insulin concentrations, AUC from immediately before the administration of starch to 180 minutes after the administration was calculated. The result of the plasma active GLP-1 concentration is shown in FIG. 5, the result of the plasma glucose concentration is shown in FIG. 6 and the result of the plasma insulin concentration is shown in FIG. 7.

Wistar rats = test: Oral corn starch loading test, plasma GIP (ELISA); conditions: oral compound (I) 3 mg/kg, Metformin 300 mg/kg, 30 min before corn starch loading, AUC 0-180 min, FIG. 8
Protocol: Effects of compound (I) alone, Metformin alone and concomitant use of compound (I) and Metformin on concentration of GIP in plasma during oral corn starch loading test in Slc: Wistar/ST rats (hereinafter abbreviated as Wistar rats) An operation to insert a polyurethane catheter was performed on the right jugular vein of a Wistar rat (9 weeks old, male, Japan SLC, Inc.), and experiments were performed in the following four groups. (1) Control group: purified water was administered at a ratio of 5 ml/kg (2) Compound (I) group: the compound (I) dissolved in purified water was administered at a dose of 3 mg/kg (5 ml/kg) […] Metformin dissolved in purified water was administered at a dose of 300 mg/kg (5 ml/kg) (4) Concomitant use group: the compound (I) and Metformin dissolved in purified water were administered at respective doses of 3 mg/kg (5 ml/kg) and 300 mg/kg (5 ml/kg) […] Blood was collected from the catheter immediately before administration and after administration of corn starch, and centrifuged at 4° C., 3000 rpm for 10 minutes to obtain plasma. The concentration of the GIP in the obtained plasma was measured by ELISA (RAT/MOUSE GIP (TOTAL) ELISA KIT, LINCO Research, Inc., US). Based on the measured GIP concentration, AUC from immediately before the administration of starch to 180 minutes after the administration was calculated.

Zucker fatty rats [1] = test: Oral sucrose loading test, plasma active GLP-1 (ELISA); conditions: oral 3 mg/kg each drug 15 min before sucrose loading, AUC 0-120 min, FIG. 1
Protocol: Effects of compound (I) alone, Miglitol alone and concomitant use of compound (I) and Miglitol on plasma concentration of active GLP-1 during oral sucrose loading test in Slc: Zucker-fa/fa rats (hereinafter abbreviated as Zucker fatty rats)
An operation to insert a polyurethane catheter was performed on the right jugular vein of a Zucker fatty rat (9 weeks old, male, Japan SLC, Inc.) which is an obesity-insulin resistant model, and experiments were performed in the following four groups.
(§1) (1) Control group: purified water was administered at a ratio of 5 ml/kg
(§2) (2) Compound (I) group: the compound (I) dissolved in purified water was administered at a dose of 3 mg/kg (5 ml/kg)
(§3) (3) Miglitol group: Miglitol dissolved in purified water was administered at a dose of 3 mg/kg (5 ml/kg)
(§4) (4) Concomitant use group: the compound (I) and Miglitol dissolved in purified water were administered at respective dose of 3 mg/kg (5 ml/kg)
Purified water, the compound (I) and Miglitol were orally administered respectively to the Zucker fatty rats fasted overnight in each group as described in (1) to (4), and after 15 minutes, a 30% aqueous sucrose solution was administered at a ratio of 10 ml/kg. […] The concentration of an active GLP-1 in the obtained plasma was measured by an enzyme immunoassay (hereinafter abbreviated as ELISA) (GLUCAGON-LIKE PEPTIDE-1 (ACTIVE) ELISA KIT, LINCO Research, Inc., US). […]

Zucker fatty rats [2] = test: Liquid diet loading test, plasma GIP, glucose and insulin; conditions: oral 3 mg/kg each drug 15 min before liquid diet loading; for increase in the plasma glucose concentration (AUC): AUC 0-60 min, FIG. 3; for increase in the GIP concentration in plasma (AUC, total GIP): AUC 0-120 min, FIG. 2
Protocol: Effects of compound (I) alone, Miglitol alone and concomitant use of compound (I) and Miglitol on GIP, glucose and insulin concentrations in plasma during liquid diet loading test in Crlj: ZUC-Lepr^fa Genotype: fa/fa rats (hereinafter abbreviated as Zucker fatty rats)
An operation to insert a polyurethane catheter was performed on the right jugular vein of a Zucker fatty rat (8 weeks old, male, Charles River Laboratories Japan, Inc.), which is an obesity and insulin-resistant model, and experiments were performed in the following four groups.
as §1, §2, §3, §4
Purified water, the compound (I) and Miglitol were orally administered respectively to the Zucker fatty rats fasted overnight in each group as described in (1) to (4), and after 15 minutes, a liquid diet (trade mark: ENSURE H, Meiji Dairies Corporation, Japan) was administered at a ratio of 10 ml/kg to carry out a diet loading test. Blood was collected from the catheter immediately before loading and after loading of the liquid diet, and centrifuged at 4° C., 3000 rpm for 10 minutes to obtain plasma. The GIP concentration in the obtained plasma was measured by an ELISA (RAT/MOUSE GIP (TOTAL) ELISA KIT, LINCO Research, Inc., US), and the plamsa glucose and insulin concentrations was measured by Glucose C2 (Wako Pure Chemical Industries, Ltd., Japan) and ELISA (Rat Insulin ELISA Kit, Shibayagi, Co., Ltd., Japan), respectively. Based on the measured GIP concentration in plasma, AUC from immediately before the loading of the liquid diet to 120 minutes after the loading was calculated. Based on the measured plasma glucose and insulin concentrations, AUC from immediately before the loading of the liquid diet to 60 minutes after the loading was calculated. […] The result of the GIP concentration in plasma is shown in FIG. 2, the result of the plasma glucose level is shown in FIG. 3 and the result of the plasma insulin concentration is shown in FIG. 4.

Row | SMILES | increase of the concentration of the active GLP-1 in the plasma (AUC of change) (ZDF rats) | plasma glucose elevation (AUC) (ZDF rats) | increase in the concentration of GIP in plasma (AUC, total GIP) (Wistar rats) | increase of the concentration of the active GLP-1 in the plasma (AUC of change) (Zucker fatty rats [1]) | increase in the plasma glucose concentration (AUC) (Zucker fatty rats [2]) | increase in the GIP concentration in plasma (AUC, total GIP) (Zucker fatty rats [2])
1 | CN(C)C(=N)N=C(N)N [Metformin] | no significant difference | significantly suppressed | significantly suppressed | – | – | –
2 | OCCN1C[C@H](O)[C@@H](O)[C@H](O)[C@H]1CO [Miglitol] | – | – | – | no significant difference | no significant difference | showed a tendency of suppressing
3 | Cc1cc2ncc(C(=O)NCC(C)(C)NCC(=O)N3CCC[C@H]3C#N)cn2n1 [compound (I), (S)—N-(2-(2-(2-cyanopyrrolidin-1-yl)-2-oxoethylamino)-2-methylpropyl)-2-methylpyrazolo[1,5-a]pyrimidine-6-carboxamide] | increased the concentration significantly | no significant difference | no change | increased the concentration significantly | no significant difference | no change
